Active and inactive are the calls of the source. No cut-off for these calls is given here.
Legend:
[1] = Inhibition of Salmonella typhimurium N-terminal His6-tagged FabG expressed in Escherichia coli BL21 (DE3) using 3-OHdNAC as substrate assessed as NADPH formation incubated for 2 hrs in presence of NADP by spectrophotometric analysis; parameters: species or system Salmonella enterica subsp. enterica serovar Typhimurium
[2] = Inhibition of Escherichia coli N-terminal His6-tagged FabG expressed in Escherichia coli BL21 (DE3) using AcAcCoA as substrate assessed as NADPH consumption measured for 6 to 10 mins in presence of NADPH by spectrophotometric analysis
[3] = Inhibition of Klebsiella pneumoniae N-terminal His6-tagged FabG1 expressed in Escherichia coli BL21 (DE3) using AcAcCoA as substrate assessed as NADPH consumption measured for 6 to 10 mins in presence of NADPH by spectrophotometric analysis
[4] = Inhibition of Pseudomonas aeruginosa N-terminal His6-tagged FabG expressed in Escherichia coli BL21 (DE3) using AcAcCoA as substrate assessed as NADPH consumption measured for 6 to 10 mins in presence of NADPH by spectrophotometric analysis
[5] = Inhibition of Salmonella typhimurium N-terminal His6-tagged FabG expressed in Escherichia coli BL21 (DE3) using AcAcCoA as substrate assessed as NADPH consumption measured for 6 to 10 mins in presence of NADPH by spectrophotometric analysis; parameters: species or system Salmonella enterica subsp. enterica serovar Typhimurium
[6] = Inhibition of Acinetobacter baumannii N-terminal His6-tagged FabG expressed in Escherichia coli BL21 (DE3) using AcAcCoA as substrate assessed as NADPH consumption measured for 6 to 10 mins in presence of NADPH by spectrophotometric analysis
Staphylococcus aureus = test: Allosteric binding affinity to Staphylococcus aureus N-terminal His6-tagged FabG expressed in Escherichia coli BL21 (DE3) assessed as protein destabilization by measuring decrease in melting temperature at 1 mM incubated for 15 mins by Sypro orange dye based differential scanning fluorimetry
[7] = Inhibition of Acinetobacter baumannii N-terminal His6-tagged FabG expressed in Escherichia coli BL21 (DE3) using 3-OHdNAC as substrate assessed as NADPH formation incubated for 2 hrs in presence of NADP by fluorescence based analysis
Pseudomonas aeruginosa = test: Allosteric binding affinity to Pseudomonas aeruginosa N-terminal His6-tagged FabG expressed in Escherichia coli BL21 (DE3) assessed as protein destabilization by measuring decrease in melting temperature at 1 mM incubated for 15 mins by Sypro orange dye based differential scanning fluorimetry
Escherichia coli = test: Allosteric binding affinity to Escherichia coli N-terminal His6-tagged FabG expressed in Escherichia coli BL21 (DE3) assessed as protein destabilization by measuring decrease in melting temperature at 1 mM incubated for 15 mins by Sypro orange dye based differential scanning fluorimetry
[8] = Inhibition of Staphylococcus aureus N-terminal His6-tagged FabG expressed in Escherichia coli BL21 (DE3) using AcAcCoA as substrate assessed as NADPH consumption measured for 6 to 10 mins in presence of NADPH by spectrophotometric analysis
[9] = system: Salmonella enterica subsp. enterica serovar Typhimurium; test: Allosteric binding affinity to Salmonella typhimurium N-terminal His6-tagged FabG expressed in Escherichia coli BL21 (DE3) assessed as protein destabilization by measuring decrease in melting temperature at 1 mM incubated for 15 mins by Sypro orange dye based differential scanning fluorimetry
Klebsiella pneumoniae = test: Allosteric binding affinity to Klebsiella pneumoniae N-terminal His6-tagged FabG expressed in Escherichia coli BL21 (DE3) assessed as protein destabilization by measuring decrease in melting temperature at 1 mM incubated for 15 mins by Sypro orange dye based differential scanning fluorimetry
Acinetobacter baumannii [10] = test: Allosteric binding affinity to Acinetobacter baumannii N-terminal His6-tagged FabG expressed in Escherichia coli BL21 (DE3) assessed as melting temperature at 1 mM incubated for 15 mins by Sypro orange dye based differential scanning fluorimetry (reference value: 61.3 degreeC)
Acinetobacter baumannii [11] = test: Allosteric binding affinity to Acinetobacter baumannii N-terminal His6-tagged FabG expressed in Escherichia coli BL21 (DE3) assessed as reduction in NADPH bound protein fraction at 100 to 500 uM by fluorescence based analysis; conditions: dose 100-500 µM

IC50 [1] | IC50 [2] | IC50 [3] | IC50 [4] | IC50 [5] | IC50 [6] | Activity (Staphylococcus aureus) | IC50 [7] | Activity (Pseudomonas aeruginosa) | Activity (Escherichia coli) | IC50 [8] | Activity [9] | Activity (Klebsiella pneumoniae) | Tm (Acinetobacter baumannii [10]) | Activity (Acinetobacter baumannii [11]) | SMILES
22 µM | 19.9 µM | 137 µM | 30.9 µM | 150 µM | – | – | – | – | – | – | – | – | – | – | O=c1[nH]c(SCc2c(Cl)cccc2Cl)nc2ccnn12
5.1 µM | – | 186 µM | 3.1 µM | 175 µM | 33.4 µM | – | – | – | – | – | – | – | – | – | O=C(Nc1ccc(Br)cc1C(=O)O)c1cccs1
35 µM | 7 µM | 13.8 µM | 19.7 µM | 12 µM | 64 µM | Active | 360 nM | Active | Active | 70.7 µM | Active | Active | 58.5 °C | Active | CCOC(=O)c1c(CN(C)C)n(-c2ccccc2)c2cc(Br)c(O)cc12

From ChEMBL document CHEMBL4765489, “A FabG inhibitor targeting an allosteric binding site inhibits several orthologs from Gram-negative ESKAPE pathogens” (Bioorg Med Chem, 2021)
